Reference: publication PMC4006730, “Trans-spliced Heat Shock Protein 90 Modulates Encystation in Giardia lamblia” (PLoS Neglected Tropical Diseases, 2014)

Legend:
Assay type in all cases: binding
[1] = molecular target: T1, GlHsp90 (trans-spliced full-length heat shock protein 90) (Giardia duodenalis, UniProt A0A644F9H9); assay: intrinsic fluorescence quenching; also inhibits the purified ATPase (EC50 […])
T1 construct: gene GL50803_0098054; full length Hsp90, N terminus 6x His-tag (Methods text says purified HspN)

[2] = molecular target: T1, GlHsp90 (trans-spliced full-length heat shock protein 90); assay: intrinsic fluorescence quenching; also ATPase by TLC with radiolabelled ATP (Km […])
[3] = molecular target: T1, GlHsp90 (trans-spliced full-length heat shock protein 90); assay: intrinsic tryptophan fluorescence quenching (ex […] nm, em […] nm), single-site fit

T1 sequence (A0A644F9H9 entry or part of it): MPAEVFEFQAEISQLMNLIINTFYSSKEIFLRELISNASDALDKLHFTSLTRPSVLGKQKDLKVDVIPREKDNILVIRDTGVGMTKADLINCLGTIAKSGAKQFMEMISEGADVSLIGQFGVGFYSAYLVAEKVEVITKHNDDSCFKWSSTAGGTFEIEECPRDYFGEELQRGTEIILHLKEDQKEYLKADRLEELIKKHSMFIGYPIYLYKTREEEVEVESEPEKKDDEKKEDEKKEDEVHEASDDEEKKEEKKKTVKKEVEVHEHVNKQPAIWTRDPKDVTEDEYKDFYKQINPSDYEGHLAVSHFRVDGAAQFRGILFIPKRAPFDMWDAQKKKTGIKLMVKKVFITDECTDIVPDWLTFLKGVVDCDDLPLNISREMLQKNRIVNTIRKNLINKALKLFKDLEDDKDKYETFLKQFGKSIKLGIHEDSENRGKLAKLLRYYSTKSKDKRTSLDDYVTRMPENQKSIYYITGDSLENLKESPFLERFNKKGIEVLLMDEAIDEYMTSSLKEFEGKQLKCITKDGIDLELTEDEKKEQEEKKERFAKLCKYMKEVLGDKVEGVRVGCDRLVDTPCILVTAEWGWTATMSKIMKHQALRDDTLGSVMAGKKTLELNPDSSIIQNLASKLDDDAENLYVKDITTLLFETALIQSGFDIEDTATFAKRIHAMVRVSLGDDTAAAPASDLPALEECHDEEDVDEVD

`C=CCNC1=C2C[C@@H](C)C[C@H](OC)[C@H](O)[C@@H](C)/C=C(\C)[C@H](OC(N)=O)[C@@H](OC)/C=C\C=C(/C)C(=O)NC(=CC1=O)C2=O` [17AAG] was tested, and the Kd [1] was 17.1 µM.
In the case of `Nc1ncnc2c1ncn2[C@@H]1O[C@H](COP(=O)(O)OP(=O)(O)OP(=O)(O)O)[C@@H](O)[C@H]1O` [ATP], the Kd [2] is reported as 630 µM.
`COC1=C2C[C@@H](C)C[C@H](OC)[C@H](O)[C@@H](C)/C=C(\C)[C@H](OC(N)=O)[C@@H](OC)/C=C\C=C(/C)C(=O)NC(=CC1=O)C2=O` [GA, Geldanamycin] gave a Kd [3] of 1.5 µM.
